The subject of experiment [1] is IL-1β secretion of THP-1 cells. In words: Effect of NLRP3 inhibitor on IL-1β secretion of THP-1 cells (AlphaLISA). The following applies: Homo sapiens; PMA, LPS and Nigericin stimulated THP-1 cells, IL-1β in supernatant; read-out: IC50 (nM), THP-1 cells to detect NLRP3 inhibitors. It counts as cell-based. As to the method:
This experiment used the PerkinElmer AlphaLISA_human_IL1β kit (AL220 C/F). The detection buffer was RPMI-1640+10FBS. AlphaLISA Immunoassay Buffer, AlphaLISA Anti-IL1β Acceptor beads, Streptavidin (SA)-coated Donor beads, and Biotinylated Antibody Anti-IL1β were all included in the kit.
The density of THP1 cells was adjusted to 4×10^5 cells/mL, PMA (final concentration 50 nM) was added, inoculated into 96-well flat-bottom plates at 200 μL/well, and stimulated overnight at 37° C., 5% CO2 (try to <16h). The next day, the supernatant was discarded, and the flat washed twice with DPBS ([…]/time). Then LPS solution (final concentration of 100 ng/ml) was added at 198 μL/well, incubated at 37° C., 5% CO2 for 3h. 1 μL of the corresponding concentration of compounds was added to each well according to the experimental MAP, incubated at 37° C., 5% CO2 for 1 h. 1 μL Nigericin (final concentration of […]) was added to each well, incubated overnight at 5% CO2 (>18h). On the third day, 5 μL of supernatant was taken, diluted 20 times, and the content of IL-Iβ in the supernatant was detected by Human Interleukin 1 beta (IL1β) Kit. Envision was used to read the AlphaLISA test value of Ex=680/[…]. GraphPad Prism 9.5.0 was used to analyze the data, and the IC50 value of the compound for IL-Iβ antagonism was fitted by four-parameter Logistic.
On the technique in general: Bead proximity is the source of the signal in Alpha formats.

The target in experiment [2] is T1, His6-Flag-TEV-NLRP3 (134-1036) (Homo sapiens, UniProt Q96P20).
T1 construct: fused on or other part: N-terminal His6 tag, Flag tag and TEV cleavage site
The experiment in a line: NLRP3 fluorescence polarization (FP) binding assay, competition with probe NP3-301. The following applies: competition with NP3-301 for binding to NLRP3 (134-1036), 30 nM protein. The protocol: This experiment uses fluorescence polarization technology to detect and evaluate the binding assay.
The fluorescent probe used in this assay is the compound NP3-301 in the Journal of Molecular Biology (2021) 433, 167309, which was synthesized with reference to this literature.
His6-Flag-TEV-NLRP3 (134-1036) protein (SEQ NO. 1) was purchased from Kaihuiruizhi Biotech (Shanghai) Co., Ltd. (ChemPartner), and was customed for expression.
Prepare 1× assay buffer: 50 mM Hepes, pH 7.4, 150 mM NaCl, 2.5 mM MgCl2, 0.005% Tween-20, 1 mM TCEP, 100 μM ATP.
First, 2.5 μL of 4× compound solution was added to a black shallow 384-well plate (Greiner, 784076), the shallow well plate was sealed, and centrifuged at 1000 rpm for 1 min; then 2× NLPR3 protein solution (final concentration of 30 nM) was added, the shallow well plate was sealed, centrifuged at 1000 rpm for 1 min, and incubated at room temperature for 60 min. Finally, 2.5 μL of 4× NP3-301 (final concentration of 0.5 nM) was added, the shallow well plate was sealed, centrifuged at 1000 rpm for 1 min, and incubated at room temperature for 30 min. Envision was used to read the fluorescence polarization values of λex=485+20 nm and kem=535+25 nm. GraphPad Prism 9.5.0 was used to analyze the data, and the IC50 value of the competition between the compound and NP3-301 for binding to His6-Flag-TEV-NLRP3 (134-1036) was fitted by four-parameter logistic. The compounds of the present disclosure have good NLRP3 binding activity, and the test results of some representative compounds are shown in Table 1.
Background: Polarisation of emitted light reports the rotation of a fluorescent probe.

A value given as a limit tells only on which side of the number the result lay.

T1 sequence (Q96P20 134-1036 limits assumed): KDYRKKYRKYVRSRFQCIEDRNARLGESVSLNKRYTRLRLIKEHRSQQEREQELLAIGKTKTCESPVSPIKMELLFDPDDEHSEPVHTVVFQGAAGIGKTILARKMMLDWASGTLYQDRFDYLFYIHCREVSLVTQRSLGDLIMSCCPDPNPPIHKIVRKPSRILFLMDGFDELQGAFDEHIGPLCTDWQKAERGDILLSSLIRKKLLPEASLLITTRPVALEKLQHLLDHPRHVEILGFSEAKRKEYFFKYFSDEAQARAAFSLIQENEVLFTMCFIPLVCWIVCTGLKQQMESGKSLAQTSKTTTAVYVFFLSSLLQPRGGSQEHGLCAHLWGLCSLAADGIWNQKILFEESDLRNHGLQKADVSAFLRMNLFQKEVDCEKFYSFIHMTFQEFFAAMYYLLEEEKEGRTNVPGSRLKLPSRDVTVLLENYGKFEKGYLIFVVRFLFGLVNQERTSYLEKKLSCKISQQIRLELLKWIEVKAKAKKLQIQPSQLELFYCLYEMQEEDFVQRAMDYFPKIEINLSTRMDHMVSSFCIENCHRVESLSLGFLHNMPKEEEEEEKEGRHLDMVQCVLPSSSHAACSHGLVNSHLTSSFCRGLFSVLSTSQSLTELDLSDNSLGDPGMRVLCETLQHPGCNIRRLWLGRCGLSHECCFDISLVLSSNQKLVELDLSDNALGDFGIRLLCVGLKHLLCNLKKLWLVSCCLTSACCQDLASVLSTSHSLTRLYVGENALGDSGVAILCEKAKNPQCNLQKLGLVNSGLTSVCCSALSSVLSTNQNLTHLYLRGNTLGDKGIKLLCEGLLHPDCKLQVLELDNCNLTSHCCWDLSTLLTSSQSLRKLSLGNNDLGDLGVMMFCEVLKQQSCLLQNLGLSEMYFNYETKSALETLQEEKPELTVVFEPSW

In the case of `Cc1cc(C(F)(F)F)cc(O)c1-c1ccc2[nH]c(CC(N)=O)nc2n1` [Compound 5], the results for the IC50 in experiment [1] and in experiment [2] were 100 to 500 nM and no more than 100 nM, respectively.

For `Cc1cc(C(F)(F)F)cc(O)c1-c1ccc2[nH]c(NCC(C)(C)O)nc2n1` [Compound 6], the IC50 in experiment [1] was in the range of 100 to 500 nM. With `Cc1cc(C(F)(F)F)cc(O)c1-c1ccc2[nH]c(C3CCCNC3)nc2n1` (centres unmarked) [Compound 9], the IC50 in experiment [1] is 50 to 100 nM; in experiment [2], no more than 100 nM. Regarding `CCN1CCCC(c2nc3nc(-c4c(C)cc(C(F)(F)F)cc4O)ccc3[nH]2)C1` (centres unmarked) [Compound 10], the IC50 was 100 to 500 nM in experiment [1] and no more than 100 nM in experiment [2]. In the same order, the values of `CCN1CCC[C@@H](n2ccc3cc(-c4c(C)cc(C(F)(F)F)cc4O)nnc32)C1` [Compound 11-a] are less than 50 nM and no more than 100 nM. The corresponding values for `CCN1CCCC(n2ccc3cc(-c4c(C)cc(C(F)(F)F)cc4O)nnc32)C1` (centres unmarked) [Compound 11] are less than 50 nM and no more than 100 nM.

Regarding `CCN1CCC[C@@H](N2CC(=O)Nc3cc(-c4c(C)cc(C(F)(F)F)cc4O)nnc32)C1` [Compound 12-a], the IC50 in experiment [1] is less than 50 nM; in experiment [2] it was no more than 100 nM. The corresponding values for `CCN1CCCC(N2CC(=O)Nc3cc(-c4c(C)cc(C(F)(F)F)cc4O)nnc32)C1` (centres unmarked) [Compound 12] are 100 to 500 nM and no more than 100 nM. The corresponding values for `Cc1cc(C(F)(F)F)cc(O)c1-c1ccc2oc(N)nc2n1` [Compound 14] are 50 to 100 nM and no more than 100 nM.

Turning to `Cc1cc(C(F)(F)F)cc(O)c1-c1ccc2oc(NC[C@@H]3COCCN3C(=O)C(F)(F)F)nc2n1` [Compound 247], the IC50 in experiment [1] is 50 to 100 nM; in experiment [2], no more than 100 nM. Regarding `Cc1cc(C(F)(F)F)cc(O)c1-c1ccc2oc(NC[C@@H]3COCCN3C(=O)C(C)C)nc2n1` [Compound 248], the IC50 is 100 to 500 nM in experiment [1] and no more than 100 nM in experiment [2]. In the same order, the values of `Cc1cc(C(F)(F)F)cc(O)c1-c1ccc2oc(NC[C@@H]3COCCN3C(=O)C(F)F)nc2n1` [Compound 249] are 100 to 500 nM and no more than 100 nM. In the same order, the values of `CCC(=O)N1CCOC[C@H]1CNc1nc2nc(-c3c(C)cc(C(F)(F)F)cc3O)ccc2o1` [Compound 250] are 100 to 500 nM and no more than 100 nM. The corresponding values for `CC(=O)N1CCOC[C@H]1CNc1nc2nc(-c3c(C)cc(Cl)cc3O)ccc2o1` [Compound 253] are less than 50 nM and no more than 100 nM. In experiment [2], `Cc1cc(C(F)(F)F)cc(O)c1-c1ccc2cc(N3CCOC[C@H]3C)nn2n1` [Compound 438] showed an IC50 of no more than 100 nM.

Compound `CCN1CCC[C@@H](Nc2nc3ccc(-c4c(C)cc(F)cc4O)nn3n2)C1` [Compound 449] had an IC50 in experiment [2] of no more than 100 nM.

For the compound `[2H]C([2H])([2H])C(=O)N1CCOC[C@H]1CNc1nc2nc(-c3c(C)cc(C(F)(F)F)cc3O)ccc2o1` [Compound 450], in experiment [2], the IC50 was no more than 100 nM. On to `CC(=O)N1CCOC[C@H]1CNc1nc2nc(-c3c(C)cc(Cl)cc3O)cc(C)c2o1` [Compound 452], for which the IC50 in experiment [2] was no more than 100 nM. `CC(=O)N1CCOC[C@H]1CNc1nc2nc(-c3c(C)cc(C(F)(F)F)cc3O)ccn2n1` [Compound 453] yielded an IC50 in experiment [2] of 500 to 1000 nM. On the same count and under the same terms, next, `Cc1cc(C(F)(F)F)cc(O)c1-c1ccc2nc(N[C@@H]3CCCN(CCO)C3)nn2n1` [Compound 454]: no more than 100 nM; `Cc1cc(C(F)(F)F)cc(O)c1-c1ccn2nc(N[C@@H]3CCCN(CCO)C3)nc2n1` [Compound 455]: no more than 100 nM; `CC(=O)N1CCOC[C@H]1CNc1nc2nc(-c3c(C)cc(C(F)(F)F)cc3O)cc(C)n2n1` [Compound 457]: 100 to 500 nM. In experiment [2], `Cc1cc(-c2ccc(C(F)(F)F)cc2O)nc2nc(N3CCOCC3)nn12` [Compound 458] yielded an IC50 of no more than 100 nM. Same read-out and setting: next, `Cc1cc(C(F)(F)F)c(Cl)c(O)c1-c1ccn2nc(N3CCOCC3)nc2n1` [Compound 459]: greater than 1000 nM. In turn, `CC(=O)N1CCC[C@@H](Nc2nc3nc(-c4c(C)cc(C(F)(F)F)cc4O)ncc3[nH]2)C1` [Compound 461] showed an IC50 in experiment [2] of 100 to 500 nM.

As a reminder, the IC50 is the point on the concentration scale where inhibition reaches its midpoint.
